From patent publication US11607424B2, “Carbon-rich micro-particles for protecting bees and overcoming colony collapse disorder” (WASHINGTON STATE UNIVERSITY, priority 2018, dated 2023)

Tested on: honey bees
Test: Detoxification effects: caged adult bees chronically exposed orally to 50 ppb Thiamethoxam with or without CMPs
Assay type: in vivo
Conditions: 50 ppb TXM, absence of CMPs
Procedure: A total of 70 plastic cages (15 cm×8 cm×10 cm) with a removable cover were used FIGS. 4A and B). Adult honey bees were collected from broods of at least seven colonies and homogenously distributed in all control and experimental cages to eliminate possible colony-level effects on the results. Cages were loaded with 100 bees per cage and then incubated in complete darkness at 30° C. and 70% relative humidity (RH). Bees were fed a sugar solution (50% w/v). The CMPs were administered at a concentration of 1% w/v in the sugar solution and delivered to experimental cages on day 2. Stock solutions of Thiamethoxam (TXM) (3-[(2-Chloro-1,3-thiazol-5-yl)methyl]-5-methyl-N-nitro-1,3,5-oxadiazinan-4-imine) were prepared from analytical grade TMX (Sigma Aldrich 37924-100MG-R) at concentration of 30 mg/L in E-pure water, and maintained at 4° C. The pesticide was administered at a concentration of 50 ppb on day 2. […]
Treatments were arranged in a completely randomized design. […] The mortality rates and feed consumption were recorded daily. Production and morphology of bee feces (frass) were assessed to ensure that CMPs passed through the bees digestive system with no harm. Bee behavior and activity (i.e. number of falls per 30 seconds, inability to climb, etc.) were also assessed. Dispensability of the CMPs in the sugar solutions were also assessed during the experiments. […]

CN1COCN(Cc2cnc(Cl)s2)C1=N[N+](=O)[O-] [TXM, 3-[(2-Chloro-1,3-thiazol-5-yl)methyl]-5-methyl-N-nitro-1,3,5-oxadiazinan-4-imine]
bee deaths (daily die-off) on day 2: 2.5% | bee deaths (daily die-off) on day 5: 21%
